Results from the supplement of paper PMC10307832.

Key:
Assay in all cases: relative viability (nuclei count vs DMSO), 5 days (fraction); higher = more cells survive
Daporinad + AZD7762 = compound: O=C(/C=C/c1cccnc1)NCCCCC1CCN(C(=O)c2ccccc2)CC1 [Daporinad] + NC(=O)Nc1cc(-c2cccc(F)c2)sc1C(=O)N[C@H]1CCCNC1 [AZD7762] (partner 0.2 µM)
Outline: (§1)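 Relative viability divides the nuclei count in treated wells by that in vehicle wells. Lung cancer cell lines were seeded in 1536-well plates, dosed by pin tool the next day, and fixed and stained after 5 days in one step with final 0.05% Triton X-100, 1% formaldehyde and 1 ug/ml Hoechst. Dosing was a single drug or a fixed anchor-drug dose plus five library-drug doses (not always all listed) in √10 steps, and values are medians of duplicate plates imaged at 4×.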

Daporinad + Pictilisib = compound: O=C(/C=C/c1cccnc1)NCCCCC1CCN(C(=O)c2ccccc2)CC1 [Daporinad] + CS(=O)(=O)N1CCN(Cc2cc3nc(-c4cccc5[nH]ncc45)nc(N4CCOCC4)c3s2)CC1 [Pictilisib] (partner 1 µM)
Outline: as §1

R406 + Luminespib = compound: COc1cc(Nc2ncc(F)c(Nc3ccc4c(n3)NC(=O)C(C)(C)O4)n2)cc(OC)c1OC [R406] + CCNC(=O)c1noc(-c2cc(C(C)C)c(O)cc2O)c1-c1ccc(CN2CCOCC2)cc1 [Luminespib] (partner 0.01 µM)
Outline: as §1

R406 + Olaparib = compound: COc1cc(Nc2ncc(F)c(Nc3ccc4c(n3)NC(=O)C(C)(C)O4)n2)cc(OC)c1OC [R406] + O=C(c1cc(Cc2n[nH]c(=O)c3ccccc23)ccc1F)N1CCN(C(=O)C2CC2)CC1 [Olaparib] (partner 8 µM)
Outline: as §1

Row | Cell Line | relative viability (Daporinad + AZD7762; first compound 0.0005 µM) | relative viability (Daporinad + AZD7762; first compound 0.001581 µM) | relative viability (Daporinad + AZD7762; first compound 0.005 µM) | relative viability (Daporinad + AZD7762; first compound 0.01581 µM) | relative viability (Daporinad + Pictilisib; first compound 0.0005 µM) | relative viability (Daporinad + Pictilisib; first compound 0.001581 µM) | relative viability (Daporinad + Pictilisib; first compound 0.005 µM) | relative viability (Daporinad + Pictilisib; first compound 0.01581 µM) | relative viability (R406 + Luminespib; first compound 0.08 µM) | relative viability (R406 + Luminespib; first compound 0.253 µM) | relative viability (R406 + Luminespib; first compound 0.8 µM) | relative viability (R406 + Luminespib; first compound 2.53 µM) | relative viability (R406 + Luminespib; first compound 8 µM) | relative viability (R406 + Olaparib; first compound 0.08 µM) | relative viability (R406 + Olaparib; first compound 0.253 µM) | relative viability (R406 + Olaparib; first compound 0.8 µM) | relative viability (R406 + Olaparib; first compound 2.53 µM) | relative viability (R406 + Olaparib; first compound 8 µM)
1 | HARA | 0.232 | 0.522 | 0.299 | 0.16 | 0.329 | 0.568 | 0.436 | 0.371 | 0.51 | 0.638 | 1.06 | 0.483 | 0.193 | 0.826 | 0.496 | 0.705 | 0.779 | 0.17
2 | HCC-78 | 0.6 | 0.626 | 0.53 | 0.796 | 0.217 | 0.145 | 0.166 | 0.259 | – | – | – | – | – | 0.83 | 0.896 | 0.848 | 0.656 | 0.394
3 | IA-LM | – | – | – | – | 0.357 | 0.321 | 0.308 | 0.307 | – | – | – | – | – | 0.835 | 1.03 | 0.913 | 0.986 | 0.882
4 | COR-L23 | – | – | – | – | 0.777 | 0.952 | 0.721 | 0.368 | 0.665 | 0.919 | 0.71 | 0.3 | 0.372 | 0.385 | 0.354 | 0.334 | 0.246 | 0.209
5 | NCI-H1623 | – | – | – | – | – | – | – | – | 0.435 | 0.483 | 0.66 | 0.371 | 0.424 | – | – | – | – | –
6 | NCI-H2023 | – | – | – | – | 0.252 | 0.3 | 0.245 | 0.278 | 0.807 | 0.608 | 0.801 | 0.41 | 0.144 | 0.437 | 0.49 | 0.474 | 0.4 | 0.163
7 | COR-L 105 | – | – | – | – | 0.348 | 0.364 | 0.36 | 0.537 | 0.757 | 0.972 | 0.658 | 0.551 | 0.768 | 0.592 | 0.704 | 0.554 | 0.59 | 0.602
8 | SK-LU-1 | – | – | – | – | 0.482 | 0.601 | 0.637 | 0.595 | 0.192 | 0.203 | 0.191 | 0.151 | 0.101 | 0.441 | 0.44 | 0.464 | 0.249 | 0.213
9 | NCI-H661 | – | – | – | – | 0.412 | 0.376 | 0.487 | 0.357 | 0.887 | 0.956 | 0.827 | 0.977 | 0.862 | 0.731 | 0.783 | 0.673 | 0.697 | 0.591
10 | SW 1573 | – | – | – | – | 0.524 | 0.552 | 0.524 | 0.36 | 0.396 | 0.44 | 0.5 | 0.161 | 0.107 | 0.492 | 0.57 | 0.607 | 0.399 | 0.158
